Data published in the NIST ThermoML archive (doi:10.1016/j.fluid.2015.03.015).

Experiment: refractive index (other wavelength) (dimensionless); xn = mol fraction of the nth substance listed

CCCC(C)O (centres undefined) [pentan-2-ol] + CCCCCCCC[n+]1ccn(C)c1.F[B-](F)(F)F
Minimum deviation
Conditions | refractive index
284.59 K, Liquid mixture 1, Wavelength=623.8 nm, x2 = 0.01 | 1.4096
284.59 K, Liquid mixture 2, Wavelength=623.8 nm, x2 = 0.347 | 1.4237
285.29 K, Liquid mixture 1, Wavelength=623.8 nm, x2 = 0.01 | 1.4093
285.29 K, Liquid mixture 2, Wavelength=623.8 nm, x2 = 0.338 | 1.4232
286.13 K, Liquid mixture 1, Wavelength=623.8 nm, x2 = 0.012 | 1.4091
286.13 K, Liquid mixture 2, Wavelength=623.8 nm, x2 = 0.332 | 1.4227
286.89 K, Liquid mixture 1, Wavelength=623.8 nm, x2 = 0.013 | 1.4088
286.89 K, Liquid mixture 2, Wavelength=623.8 nm, x2 = 0.319 | 1.422
287.65 K, Liquid mixture 1, Wavelength=623.8 nm, x2 = 0.015 | 1.4086
287.65 K, Liquid mixture 2, Wavelength=623.8 nm, x2 = 0.315 | 1.4216
288.25 K, Liquid mixture 1, Wavelength=623.8 nm, x2 = 0.016 | 1.4084
288.25 K, Liquid mixture 2, Wavelength=623.8 nm, x2 = 0.307 | 1.4211
288.92 K, Liquid mixture 1, Wavelength=623.8 nm, x2 = 0.016 | 1.4081
288.92 K, Liquid mixture 2, Wavelength=623.8 nm, x2 = 0.293 | 1.4204
289.54 K, Liquid mixture 1, Wavelength=623.8 nm, x2 = 0.019 | 1.408
289.54 K, Liquid mixture 2, Wavelength=623.8 nm, x2 = 0.288 | 1.42
290.07 K, Liquid mixture 1, Wavelength=623.8 nm, x2 = 0.021 | 1.4079
290.07 K, Liquid mixture 2, Wavelength=623.8 nm, x2 = 0.279 | 1.4195
290.61 K, Liquid mixture 1, Wavelength=623.8 nm, x2 = 0.021 | 1.4077
290.61 K, Liquid mixture 2, Wavelength=623.8 nm, x2 = 0.271 | 1.419
291.08 K, Liquid mixture 1, Wavelength=623.8 nm, x2 = 0.023 | 1.4076
291.08 K, Liquid mixture 2, Wavelength=623.8 nm, x2 = 0.264 | 1.4186
291.55 K, Liquid mixture 1, Wavelength=623.8 nm, x2 = 0.025 | 1.4075
291.55 K, Liquid mixture 2, Wavelength=623.8 nm, x2 = 0.255 | 1.4181
292.02 K, Liquid mixture 1, Wavelength=623.8 nm, x2 = 0.027 | 1.4074
292.02 K, Liquid mixture 2, Wavelength=623.8 nm, x2 = 0.247 | 1.4176
292.46 K, Liquid mixture 1, Wavelength=623.8 nm, x2 = 0.03 | 1.4074
292.46 K, Liquid mixture 2, Wavelength=623.8 nm, x2 = 0.235 | 1.417
292.84 K, Liquid mixture 1, Wavelength=623.8 nm, x2 = 0.031 | 1.4073
292.84 K, Liquid mixture 2, Wavelength=623.8 nm, x2 = 0.229 | 1.4166
293.15 K, Liquid mixture 1, Wavelength=623.8 nm, x2 = 0.035 | 1.4074
293.15 K, Liquid mixture 2, Wavelength=623.8 nm, x2 = 0.221 | 1.4162
293.41 K, Liquid mixture 1, Wavelength=623.8 nm, x2 = 0.037 | 1.4074
293.41 K, Liquid mixture 2, Wavelength=623.8 nm, x2 = 0.211 | 1.4157
293.63 K, Liquid mixture 1, Wavelength=623.8 nm, x2 = 0.04 | 1.4075
293.63 K, Liquid mixture 2, Wavelength=623.8 nm, x2 = 0.206 | 1.4154
293.78 K, Liquid mixture 1, Wavelength=623.8 nm, x2 = 0.041 | 1.4075
293.78 K, Liquid mixture 2, Wavelength=623.8 nm, x2 = 0.202 | 1.4152
293.89 K, Liquid mixture 1, Wavelength=623.8 nm, x2 = 0.044 | 1.4076
293.89 K, Liquid mixture 2, Wavelength=623.8 nm, x2 = 0.201 | 1.4151
293.99 K, Liquid mixture 1, Wavelength=623.8 nm, x2 = 0.045 | 1.4076
293.99 K, Liquid mixture 2, Wavelength=623.8 nm, x2 = 0.197 | 1.4149
294.09 K, Liquid mixture 1, Wavelength=623.8 nm, x2 = 0.047 | 1.4077
294.09 K, Liquid mixture 2, Wavelength=623.8 nm, x2 = 0.193 | 1.4147
294.19 K, Liquid mixture 1, Wavelength=623.8 nm, x2 = 0.048 | 1.4077
294.19 K, Liquid mixture 2, Wavelength=623.8 nm, x2 = 0.189 | 1.4145
294.27 K, Liquid mixture 1, Wavelength=623.8 nm, x2 = 0.05 | 1.4078
294.27 K, Liquid mixture 2, Wavelength=623.8 nm, x2 = 0.188 | 1.4144
294.35 K, Liquid mixture 1, Wavelength=623.8 nm, x2 = 0.053 | 1.4079
294.35 K, Liquid mixture 2, Wavelength=623.8 nm, x2 = 0.184 | 1.4142
294.42 K, Liquid mixture 1, Wavelength=623.8 nm, x2 = 0.054 | 1.4079
294.42 K, Liquid mixture 2, Wavelength=623.8 nm, x2 = 0.18 | 1.414
294.49 K, Liquid mixture 1, Wavelength=623.8 nm, x2 = 0.056 | 1.408
294.49 K, Liquid mixture 2, Wavelength=623.8 nm, x2 = 0.175 | 1.4138
294.54 K, Liquid mixture 1, Wavelength=623.8 nm, x2 = 0.058 | 1.4081
294.54 K, Liquid mixture 2, Wavelength=623.8 nm, x2 = 0.174 | 1.4137
294.6 K, Liquid mixture 1, Wavelength=623.8 nm, x2 = 0.06 | 1.4082
294.6 K, Liquid mixture 2, Wavelength=623.8 nm, x2 = 0.172 | 1.4136
294.64 K, Liquid mixture 1, Wavelength=623.8 nm, x2 = 0.063 | 1.4083

85 kPa, Liquid, Wavelength=632.8 nm, Minimum Deviation
Conditions | refractive index
288.19 K, x2 = 0.599 | 1.4284
288.8 K, x2 = 0.899 | 1.4331
288.81 K, x2 = 0.798 | 1.4316
288.98 K, x2 = 0.7 | 1.4298
289.74 K, x2 = 0.599 | 1.428
290.84 K, x2 = 0.798 | 1.4311
290.84 K, x2 = 0.899 | 1.4326
290.99 K, x2 = 0.7 | 1.4293
291.3 K, x2 = 0.599 | 1.4275
292.85 K, x2 = 0.599 | 1.427
292.89 K, x2 = 0.899 | 1.432
292.91 K, x2 = 0.798 | 1.4305
293.05 K, x2 = 0.7 | 1.4287
293.9 K, x2 = 0.4 | 1.422
294.42 K, x2 = 0.599 | 1.4265
